# From ChEMBL document CHEMBL6153035, “Natural and Semisynthetic Immunomodulatory Luakuliide Labdane Diterpenoids” (J Nat Prod, 2025)
# Active and inactive are the calls of the source. The rule behind the calls is not given here.
# Test system: RAW264.7
# Test: Cytotoxicity against LPS-stimulated mouse RAW264.7 cells assessed as changes in cellular metabolism at 1 to 10000 nM incubated for 8 hrs by MTT assay
# Assay type: toxicity, cell-based
# Settings: raw264.7, 8 h, 10 µM, dose 1-10000 nM
row,Structure (SMILES),Activity
1,CC1(C)CCC[C@@]23[C@H](O)O[C@@](C)(CC[C@@H]12)[C@@H]3CCc1ccoc1,Non-toxic

# Test system: RAW264.7
# Test: Cytotoxicity against LPS-stimulated mouse RAW264.7 cells assessed as reduction in cellular metabolism at 10 uM incubated for 8 hrs by MTT assay
# Assay type: toxicity, cell-based
# Settings: raw264.7, 8 h
row,Structure (SMILES),Activity
1,CC1=CC[C@H]2C(C)(C)CCC[C@]2(C=O)[C@H]1CCc1ccoc1,Toxic
2,CC(=O)O[C@@H]1O[C@@]2(C)CC[C@H]3C(C)(C)CCC[C@@]13[C@H]2CCc1ccoc1,Toxic
3,CC1=C(CCc2ccoc2)[C@@]2(C=O)CCCC(C)(C)[C@@H]2CC1,Toxic
4,CO[C@@H]1O[C@@]2(C)CC[C@H]3C(C)(C)CCC[C@@]13[C@H]2CCC1=CCOC1=O,Toxic
5,CC1=C(CCc2cc(Br)oc2Br)[C@@]2(C=O)CCCC(C)(C)[C@@H]2CC1,Toxic
6,CC1(C)CCC[C@@]23[C@H](O)O[C@@](C)(CC[C@@H]12)[C@@H]3CCC1=CCN(CC(=O)O)C1=O,Toxic
7,CC1=C(CCC2=CCOC2=O)[C@@]2(C=O)CCCC(C)(C)[C@@H]2CC1,Toxic

# Test system: RAW264.7
# Test: Cytotoxicity against LPS-stimulated mouse RAW264.7 cells assessed as reduction in cellular metabolism at 3.2 uM incubated for 8 hrs by MTT assay
# Assay type: toxicity, cell-based
# Settings: raw264.7, 8 h
row,Structure (SMILES),Activity
1,CC1=CC[C@H]2C(C)(C)CCC[C@]2(C=O)[C@H]1CCc1ccoc1,Toxic
2,CC(=O)O[C@@H]1O[C@@]2(C)CC[C@H]3C(C)(C)CCC[C@@]13[C@H]2CCc1ccoc1,Toxic
3,CC1=C(CCc2ccoc2)[C@@]2(C=O)CCCC(C)(C)[C@@H]2CC1,Toxic
4,CC1=C(CCc2cc(Br)oc2Br)[C@@]2(C=O)CCCC(C)(C)[C@@H]2CC1,Toxic

# Test system: RAW264.7
# Test: Antiinflammatory activity against LPS-stimulated mouse RAW264.7 cells assessed as reduction in TNF production at 1 to 1000 nM preincubated with compound for 8 hrs followed by LPS-induction and measured after 48 hrs by ELISA based assay
# Assay type: functional, cell-based
# Settings: dose 1-1000 nM, time 56.0 hrs
row,Structure (SMILES),Activity
1,CC1=CC[C@H]2C(C)(C)CCC[C@]2(C=O)[C@H]1CCc1ccoc1,inactive
2,CC(=O)O[C@@H]1O[C@@]2(C)CC[C@H]3C(C)(C)CCC[C@@]13[C@H]2CCc1ccoc1,Active
3,CC1=C(CCc2ccoc2)[C@@]2(C=O)CCCC(C)(C)[C@@H]2CC1,inactive
4,CO[C@@H]1O[C@@]2(C)CC[C@H]3C(C)(C)CCC[C@@]13[C@H]2CCC1=CCOC1=O,inactive
5,CC1=C(CCc2cc(Br)oc2Br)[C@@]2(C=O)CCCC(C)(C)[C@@H]2CC1,inactive
6,CC1(C)CCC[C@@]23[C@H](O)O[C@@](C)(CC[C@@H]12)[C@@H]3CCC1=CCN(CC(=O)O)C1=O,Active
7,CC1=C(CCC2=CCOC2=O)[C@@]2(C=O)CCCC(C)(C)[C@@H]2CC1,inactive
8,CC1(C)CCC[C@@]23[C@H](O)O[C@@](C)(CC[C@@H]12)[C@@H]3CCc1ccoc1,inactive

# Test system: not listed separately
# Test: Cytotoxicity against LPS-stimulated mouse BMDM cells assessed as changes in cellular metabolism at 1 to 100 nM for 8 hrs by MTT assay
# Assay type: toxicity, cell-based
# Settings: 0.1 µM, dose 1-100 nM
row,Structure (SMILES),Activity
1,CC1=CC[C@H]2C(C)(C)CCC[C@]2(C=O)[C@H]1CCc1ccoc1,Non-toxic
2,CC1=C(CCc2ccoc2)[C@@]2(C=O)CCCC(C)(C)[C@@H]2CC1,Non-toxic
3,CO[C@@H]1O[C@@]2(C)CC[C@H]3C(C)(C)CCC[C@@]13[C@H]2CCC1=CCOC1=O,Non-toxic
4,CC1=C(CCc2cc(Br)oc2Br)[C@@]2(C=O)CCCC(C)(C)[C@@H]2CC1,Non-toxic
5,CC1(C)CCC[C@@]23[C@H](O)O[C@@](C)(CC[C@@H]12)[C@@H]3CCC1=CCN(CC(=O)O)C1=O,Non-toxic
6,CC1=C(CCC2=CCOC2=O)[C@@]2(C=O)CCCC(C)(C)[C@@H]2CC1,Non-toxic
7,CC1(C)CCC[C@@]23[C@H](O)O[C@@](C)(CC[C@@H]12)[C@@H]3CCc1ccoc1,Non-toxic

# Test system: BMDM
# Test: Antiinflammatory activity against LPS-stimulated mouse BMDM cells assessed as reduction in TNF production at 1 to 100 nM preincubated with compound for 8 hrs followed by LPS-induction and measured after 48 hrs by ELISA assay
# Assay type: functional, cell-based
# Settings: dose 1-100 nM, time 56.0 hrs
row,Structure (SMILES),Activity
1,CC1(C)CCC[C@@]23[C@H](O)O[C@@](C)(CC[C@@H]12)[C@@H]3CCC1=CCN(CC(=O)O)C1=O,Active

# Test system: BMDM
# Test: Antiinflammatory activity against LPS-stimulated mouse BMDM cells assessed as reduction in IL-6 production at 1 to 100 nM preincubated with compound for 8 hrs followed by LPS-induction and measured after 48 hrs by ELISA assay
# Assay type: functional, cell-based
# Settings: dose 1-100 nM, time 56.0 hrs
row,Structure (SMILES),Activity
1,CC1(C)CCC[C@@]23[C@H](O)O[C@@](C)(CC[C@@H]12)[C@@H]3CCC1=CCN(CC(=O)O)C1=O,Active

# Test system: not listed separately
# Test: Cytotoxicity against LPS-stimulated mouse BMDM cells assessed as reduction in cellular metabolism at 1 to 100 nM incubated for 8 hrs in presence of 500 ng/mL of LPS-stimulation by MTT assay
# Assay type: toxicity, cell-based
# Settings: 0.1 µM, dose 1-100 nM
row,Structure (SMILES),Activity
1,CC1=CC[C@H]2C(C)(C)CCC[C@]2(C=O)[C@H]1CCc1ccoc1,Toxic
2,CC1=C(CCc2ccoc2)[C@@]2(C=O)CCCC(C)(C)[C@@H]2CC1,Toxic
3,CO[C@@H]1O[C@@]2(C)CC[C@H]3C(C)(C)CCC[C@@]13[C@H]2CCC1=CCOC1=O,Toxic
4,CC1=C(CCC2=CCOC2=O)[C@@]2(C=O)CCCC(C)(C)[C@@H]2CC1,Toxic
5,CC1(C)CCC[C@@]23[C@H](O)O[C@@](C)(CC[C@@H]12)[C@@H]3CCc1ccoc1,Toxic

# Test system: BMDM
# Test: Antiinflammatory activity against LPS-stimulated mouse BMDM cells assessed as reduction in TNF production preincubated with compound for 8 hrs followed by LPS-induction and measured after 48 hrs by ELISA assay
# Assay type: functional, cell-based
# Settings: dose 1-100 nM, time 56.0 hrs
row,Structure (SMILES),Activity
1,CC1=C(CCc2cc(Br)oc2Br)[C@@]2(C=O)CCCC(C)(C)[C@@H]2CC1,Dose-dependent-effect

# Test system: BMDM
# Test: Antiinflammatory activity against LPS-stimulated mouse BMDM cells assessed as reduction IL-6 production at 1 to 100 nM preincubated with compound for 8 hrs followed by LPS-induction and measured after 48 hrs by ELISA assay
# Assay type: functional, cell-based
# Settings: dose 1-100 nM, time 56.0 hrs
row,Structure (SMILES),Activity
1,CC1=CC[C@H]2C(C)(C)CCC[C@]2(C=O)[C@H]1CCc1ccoc1,inactive
2,CC1=C(CCc2cc(Br)oc2Br)[C@@]2(C=O)CCCC(C)(C)[C@@H]2CC1,inactive

# Test system: not listed separately
# Test: Cytotoxicity against IFN-gamma/LPS-stimulated mouse BMDM cells assessed as changes in cellular metabolism at 1 to 100 nM primed with 20 U/mL of IFN-gamma followed by 200 ng/mL of LPS stimulation in presence of compound at 1 to 100 nM for 48 hrs by MTT assay
# Assay type: toxicity, cell-based
# Settings: 0.1 µM, dose 1-100 nM
row,Structure (SMILES),Activity
1,CO[C@@H]1O[C@@]2(C)CC[C@H]3C(C)(C)CCC[C@@]13[C@H]2CCC1=CCOC1=O,Toxic
2,CC1=C(CCc2cc(Br)oc2Br)[C@@]2(C=O)CCCC(C)(C)[C@@H]2CC1,Toxic
3,CC1=C(CCC2=CCOC2=O)[C@@]2(C=O)CCCC(C)(C)[C@@H]2CC1,Toxic

# Test system: BMDM
# Test: Antiinflammatory activity against IFN-gamma and LPS-stimulated mouse BMDM cells assessed as reduction in IL-6 production at 1 to 100 nM primed with 20 U/mL of IFN-gamma followed by 200 ng/mL of LPS stimulation in presence of compound for 48 hrs by ELISA assay
# Assay type: functional, cell-based
# Settings: dose 1-100 nM
row,Structure (SMILES),Activity
1,CC1=CC[C@H]2C(C)(C)CCC[C@]2(C=O)[C@H]1CCc1ccoc1,inactive
2,CC1=C(CCc2ccoc2)[C@@]2(C=O)CCCC(C)(C)[C@@H]2CC1,inactive
3,CO[C@@H]1O[C@@]2(C)CC[C@H]3C(C)(C)CCC[C@@]13[C@H]2CCC1=CCOC1=O,Active
4,CC1=C(CCc2cc(Br)oc2Br)[C@@]2(C=O)CCCC(C)(C)[C@@H]2CC1,Active
5,CC1=C(CCC2=CCOC2=O)[C@@]2(C=O)CCCC(C)(C)[C@@H]2CC1,Active

# Test system: BMDM
# Test: Antiinflammatory activity against IFN-gamma and LPS-stimulated mouse BMDM cells assessed as reduction in IL-12 production at 1 to 100 nM primed with 20 U/mL of IFN-gamma followed by 200 ng/mL of LPS stimulation in presence of compound for 48 hrs by ELISA assay
# Assay type: functional, cell-based
# Settings: dose 1-100 nM
row,Structure (SMILES),Activity
1,CC1=CC[C@H]2C(C)(C)CCC[C@]2(C=O)[C@H]1CCc1ccoc1,inactive
2,CC1=C(CCc2ccoc2)[C@@]2(C=O)CCCC(C)(C)[C@@H]2CC1,inactive
3,CO[C@@H]1O[C@@]2(C)CC[C@H]3C(C)(C)CCC[C@@]13[C@H]2CCC1=CCOC1=O,Active
4,CC1=C(CCc2cc(Br)oc2Br)[C@@]2(C=O)CCCC(C)(C)[C@@H]2CC1,Active
5,CC1=C(CCC2=CCOC2=O)[C@@]2(C=O)CCCC(C)(C)[C@@H]2CC1,Active

# Test system: BMDM
# Test: Antiinflammatory activity against IFN-gamma and LPS-stimulated mouse BMDM cells assessed as change in NO production at 1 to 100 nM primed with 20 U/mL of IFN-gamma followed by 200 ng/mL of LPS stimulation in presence of compound for 48 hrs by […] assay
# Assay type: functional, cell-based
# Settings: dose 1-100 nM
row,Structure (SMILES),Activity
1,CO[C@@H]1O[C@@]2(C)CC[C@H]3C(C)(C)CCC[C@@]13[C@H]2CCC1=CCOC1=O,inactive
2,CC1=C(CCc2cc(Br)oc2Br)[C@@]2(C=O)CCCC(C)(C)[C@@H]2CC1,inactive
3,CC1=C(CCC2=CCOC2=O)[C@@]2(C=O)CCCC(C)(C)[C@@H]2CC1,inactive

# Test system: BMDM
# Test: Antiinflammatory activity against IFN-gamma and LPS-stimulated mouse BMDM cells assessed as change in IL-10 secretion at 1 to 100 nM primed with 20 U/mL of IFN-gamma followed by 200 ng/mL of LPS stimulation in presence of compound for 48 hour by ELISA assay
# Assay type: functional, cell-based
# Settings: dose 1-100 nM
row,Structure (SMILES),Activity
1,CO[C@@H]1O[C@@]2(C)CC[C@H]3C(C)(C)CCC[C@@]13[C@H]2CCC1=CCOC1=O,Active
2,CC1=C(CCc2cc(Br)oc2Br)[C@@]2(C=O)CCCC(C)(C)[C@@H]2CC1,Active
3,CC1=C(CCC2=CCOC2=O)[C@@]2(C=O)CCCC(C)(C)[C@@H]2CC1,Active

# Test system: BMDM
# Test: Antiinflammatory activity against LPS-stimulated mouse BMDM cells assessed as reduction in IL-6 production at 10 to 100 nM preincubated with compound for 8 hrs followed by LPS-induction and measured after 48 hrs by ELISA assay
# Assay type: functional, cell-based
# Settings: dose 10-100 nM, time 56.0 hrs
row,Structure (SMILES),Activity
1,CC1=C(CCc2ccoc2)[C@@]2(C=O)CCCC(C)(C)[C@@H]2CC1,Active
2,CC1=C(CCC2=CCOC2=O)[C@@]2(C=O)CCCC(C)(C)[C@@H]2CC1,Active

# Test system: BMDM
# Test: Antiinflammatory activity against LPS-stimulated mouse BMDM cells assessed as induction of TNF production at 1 to 100 nM preincubated with compound for 8 hrs followed by LPS-induction and measured after 48 hrs by ELISA assay
# Assay type: functional, cell-based
# Settings: dose 1-100 nM, time 56.0 hrs
row,Structure (SMILES),Activity
1,CC1=CC[C@H]2C(C)(C)CCC[C@]2(C=O)[C@H]1CCc1ccoc1,Active
2,CC1=C(CCc2ccoc2)[C@@]2(C=O)CCCC(C)(C)[C@@H]2CC1,Active
3,CO[C@@H]1O[C@@]2(C)CC[C@H]3C(C)(C)CCC[C@@]13[C@H]2CCC1=CCOC1=O,Active
4,CC1(C)CCC[C@@]23[C@H](O)O[C@@](C)(CC[C@@H]12)[C@@H]3CCc1ccoc1,Active
